Assay results published in patent US9480259B2, “Pyrazolopyrans having herbicidal and pharmaceutical properties” (BASF SE, priority 2012, dated 2016).

What follows are compounds tested against Arabidopsis thaliana SHMT (assay: SHMT activity assay (ED50 SHMT), coupled with N5,N10-CH2-THF dehydrogenase, NADH at 340 nm). Conditions: Table 2, Arabidopsis thaliana SHMT enzyme assay; values given as upper bounds.
Assay type: biochemical
In short: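 His-tagged SHMT purified on Ni-NTA. NADH formation followed at 340 nm for 30 min; ED50 from inhibition of initial velocity.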

| SMILES | EC50 |
| --- | --- |
| Cc1n[nH]c2c1C(c1ccc(F)c(Cl)c1)(C1CCCC1)C(C#N)=C(N)O2 (stereo not shown) [Compound 2.228] | < 0.1 µM |
| Cc1n[nH]c2c1C(c1cccc(C(F)(F)F)c1)(C1CCCCC1)C(C#N)=C(N)O2 (stereo not shown) [Compound 2.230] | < 10 µM |
| N#CC1=C(N)Oc2[nH]nc(O)c2C1(c1cc(F)cc(Cl)c1)C1CCC1 (stereo not shown) [Compound 2.231] | < 10 µM |
| Cc1cccc(Oc2cc(Cl)cc(C3(C4CCC4)C(C#N)=C(N)Oc4[nH]nc(C)c43)c2)c1 (stereo not shown) [Compound 2.239] | < 0.1 µM |
| COc1ccc(C2(C3CCCC3)C(C#N)=C(N)Oc3[nH]ncc32)cc1Cl (stereo not shown) [Compound 2.254] | < 10 µM |
| N#CC1=C(N)Oc2[nH]ncc2C1(c1cc(Cl)cc(Cl)c1)C1CCCC1 (stereo not shown) [Compound 2.256] | < 10 µM |
| Cc1n[nH]c2c1C(c1cc(Cl)cc(-c3ccco3)c1)(C1CCC1)C(C#N)=C(N)O2 (stereo not shown) [Compound 2.262] | < 0.01 µM |
| Cc1n[nH]c2c1C(c1cc(Cl)cc(-c3cccs3)c1)(C1CCC1)C(C#N)=C(N)O2 (stereo not shown) [Compound 2.263] | < 0.01 µM |
| Cc1n[nH]c2c1C(c1cccc(OC(F)F)c1)(C1CCC1)C(C#N)=C(N)O2 (stereo not shown) [Compound 2.264] | < 0.01 µM |
| Cc1n[nH]c2c1C(c1ccc(F)c(OC(F)(F)F)c1)(C1CCC1)C(C#N)=C(N)O2 (stereo not shown) [Compound 2.265] | < 0.01 µM |

Further lines, results first:

| EC50 | SMILES |
| --- | --- |
| < 0.01 µM | COc1ccc(C2(C3CCCC3)C(C#N)=C(N)Oc3[nH]nc(C)c32)cc1C(F)(F)F (stereo not shown) [Compound 2.215] |
| < 0.01 µM | Cc1n[nH]c2c1C(c1cc(Cl)cc(-c3ccoc3)c1)(C1CCC1)C(C#N)=C(N)O2 (stereo not shown) [Compound 2.220] |
| < 0.01 µM | Cc1n[nH]c2c1C(c1cc(Cl)cc(C(F)(F)F)c1)(C1CCC1)C(C#N)=C(N)O2 (stereo not shown) [Compound 2.221] |
| < 0.01 µM | COc1ccc(C2(C(C)C)C(C#N)=C(N)Oc3[nH]nc(C)c32)cc1Br (stereo not shown) [Compound 2.222] |
| < 0.01 µM | Cc1n[nH]c2c1C(c1cc(Cl)cc(-c3cccc(F)c3)c1)(C1CCC1)C(C#N)=C(N)O2 (stereo not shown) [Compound 2.223] |
| < 0.01 µM | Cc1n[nH]c2c1C(c1cc(Cl)cc(-c3ccc(F)cc3)c1)(C1CCC1)C(C#N)=C(N)O2 (stereo not shown) [Compound 2.224] |
| < 0.01 µM | Cc1n[nH]c2c1C(c1cc(Cl)cc(-c3ccc(Cl)cc3)c1)(C1CCC1)C(C#N)=C(N)O2 (stereo not shown) [Compound 2.225] |
| < 0.01 µM | Cc1n[nH]c2c1C(c1cc(Cl)cc(-c3ccc(O)cc3)c1)(C1CCC1)C(C#N)=C(N)O2 (stereo not shown) [Compound 2.226] |
| < 0.01 µM | Cc1n[nH]c2c1C(c1cc(Cl)cc(-c3cccc(Cl)c3)c1)(C1CCC1)C(C#N)=C(N)O2 (stereo not shown) [Compound 2.227] |
| < 0.01 µM | Cc1n[nH]c2c1C(c1cc(Br)cc(Br)c1)(C1CCC1)C(C#N)=C(N)O2 (stereo not shown) [Compound 2.232] |
| < 0.01 µM | Cc1n[nH]c2c1C(c1cc(Br)cc(C(F)(F)F)c1)(C1CCC1)C(C#N)=C(N)O2 (stereo not shown) [Compound 2.233] |
| < 0.01 µM | Cc1n[nH]c2c1C(c1cc(Cl)cc(Oc3cccc(C(F)(F)F)c3)c1)(C1CCC1)C(C#N)=C(N)O2 (stereo not shown) [Compound 2.234] |
| < 0.01 µM | Cc1n[nH]c2c1C(c1cc(Cl)cc(Oc3ccccc3F)c1)(C1CCC1)C(C#N)=C(N)O2 (stereo not shown) [Compound 2.235] |
| < 0.01 µM | Cc1n[nH]c2c1C(c1cc(Cl)cc(Oc3ccccc3Cl)c1)(C1CCC1)C(C#N)=C(N)O2 (stereo not shown) [Compound 2.236] |
| < 0.01 µM | Cc1n[nH]c2c1C(c1cc(Cl)cc(Oc3cccc(Cl)c3)c1)(C1CCC1)C(C#N)=C(N)O2 (stereo not shown) [Compound 2.237] |
| < 0.01 µM | COc1cccc(Oc2cc(Cl)cc(C3(C4CCC4)C(C#N)=C(N)Oc4[nH]nc(C)c43)c2)c1 (stereo not shown) [Compound 2.238] |

| EC50 | SMILES |
| --- | --- |
| < 0.01 µM | Cc1ccc(Oc2cc(Cl)cc(C3(C4CCC4)C(C#N)=C(N)Oc4[nH]nc(C)c43)c2)cc1 (stereo not shown) [Compound 2.240] |
| < 0.01 µM | COc1c(Br)cc(C2(C3CCC3)C(C#N)=C(N)Oc3[nH]nc(C)c32)cc1Br (stereo not shown) [Compound 2.241] |
| < 0.01 µM | Cc1n[nH]c2c1C(c1cc(Cl)c(F)c(Cl)c1)(C1CCC1)C(C#N)=C(N)O2 (stereo not shown) [Compound 2.242] |
| < 0.01 µM | N#CC1=C(N)Oc2[nH]ncc2C1(c1cc(Cl)cc(Cl)c1)C1CCC1 (stereo not shown) [Compound 2.244] |
| < 0.01 µM | Cc1n[nH]c2c1C(c1ccc(Cl)c(Cl)c1)(C1(F)CC1)C(C#N)=C(N)O2 (stereo not shown) [Compound 2.245] |
| < 0.01 µM | N#CC1=C(N)Oc2[nH]ncc2C1(c1cc(Cl)cc(Br)c1)C1CCC1 (stereo not shown) [Compound 2.248] |
| < 0.01 µM | Cc1n[nH]c2c1C(c1cc(Cl)cc(-c3cccc(C(F)(F)F)c3)c1)(C1CCC1)C(C#N)=C(N)O2 (stereo not shown) [Compound 2.249] |
| < 0.01 µM | Cc1n[nH]c2c1C(c1cc(Cl)cc(-c3ccc(C(F)(F)F)cc3)c1)(C1CCC1)C(C#N)=C(N)O2 (stereo not shown) [Compound 2.250] |
| < 0.01 µM | N#CC1=C(N)Oc2[nH]ncc2C1(c1cc(Br)cc(Br)c1)C1CCC1 (stereo not shown) [Compound 2.251] |
| < 0.01 µM | N#CC1=C(N)Oc2[nH]ncc2C1(c1cc(Cl)cc(C(F)(F)F)c1)C1CCC1 (stereo not shown) [Compound 2.252] |
| < 0.01 µM | COc1ccc(C2(C3CCC3)C(C#N)=C(N)Oc3[nH]ncc32)cc1Cl (stereo not shown) [Compound 2.253] |
| < 0.01 µM | COc1ccc(C2(C3CCC3)C(C#N)=C(N)Oc3[nH]ncc32)cc1Br (stereo not shown) [Compound 2.255] |
| < 0.01 µM | Cc1n[nH]c2c1C(c1cc(F)cc(C#N)c1)(C1CCC1)C(C#N)=C(N)O2 (stereo not shown) [Compound 2.258] |
| < 0.01 µM | N#CC1=C(N)Oc2[nH]ncc2C1(c1cc(Br)cc(C(F)(F)F)c1)C1CCC1 (stereo not shown) [Compound 2.259] |
| < 0.01 µM | COc1ccc(C2(C3(F)CC3)C(C#N)=C(N)Oc3[nH]nc(C)c32)cc1Cl (stereo not shown) [Compound 2.260] |

Same assay, conditions: Table 2; values given as upper bounds

| EC50 | SMILES |
| --- | --- |
| < 1 µM | Cc1n[nH]c2c1C(c1cc(Cl)cc(Cl)c1)(C1CCCC1)C(C#N)=C(N)O2 (stereo not shown) [Compound 2.199.] |
| < 0.1 µM | Cc1n[nH]c2c1C(c1cc(Cl)cc(Oc3cccc(F)c3)c1)(C1CCC1)C(C#N)=C(N)O2 (stereo not shown) [Compound 2.200.] |
| < 0.1 µM | Cc1n[nH]c2c1C(c1cc(Cl)cc(Oc3ccc(F)cc3)c1)(C1CCC1)C(C#N)=C(N)O2 (stereo not shown) [Compound 2.201.] |
| < 1 µM | COc1ccc(C2(C3CCCC3)C(C#N)=C(N)Oc3[nH]nc(C)c32)cc1Cl (stereo not shown) [Compound 2.203.] |
| < 10 µM | CC(C)CC1(c2cc(Cl)cc(Cl)c2)C(C#N)=C(N)Oc2[nH]ncc21 (stereo not shown) [Compound 2.205.] |
| < 10 µM | Cc1n[nH]c2c1C(c1cc(Cl)cc(Cl)c1)(C1CCCCC1)C(C#N)=C(N)O2 (stereo not shown) [Compound 2.206.] |
| < 0.01 µM | Cc1n[nH]c2c1C(c1cc(Cl)cc(Br)c1)(C1CCC1)C(C#N)=C(N)O2 (stereo not shown) [Compound 2.207.] |
| < 0.01 µM | COc1ccc(C2(C3CCC3)C(C#N)=C(N)Oc3[nH]nc(C)c32)cc1Br (stereo not shown) [Compound 2.208.] |
| < 0.01 µM | Cc1n[nH]c2c1C(c1cc(Cl)c(Cl)c(Cl)c1)(C1CCC1)C(C#N)=C(N)O2 (stereo not shown) [Compound 2.209.] |
| < 0.1 µM | Cc1n[nH]c2c1C(c1ccc(Cl)c(Cl)c1)(C1CCCC1)C(C#N)=C(N)O2 (stereo not shown) [Compound 2.210.] |
| < 0.1 µM | Cc1n[nH]c2c1C(c1cccc(Cl)c1)(C1CCCC1)C(C#N)=C(N)O2 (stereo not shown) [Compound 2.211.] |
| < 10 µM | Cc1n[nH]c2c1C(c1ccc(Cl)c(Cl)c1)(C1CCCCC1)C(C#N)=C(N)O2 (stereo not shown) [Compound 2.212.] |
| < 0.01 µM | Cc1n[nH]c2c1C(c1cccc(C(F)(F)F)c1)(C1CCCC1)C(C#N)=C(N)O2 (stereo not shown) [Compound 2.213.] |
| < 0.01 µM | Cc1n[nH]c2c1C(c1cc(Cl)cc(Cl)c1)(C1(F)CC1)C(C#N)=C(N)O2 (stereo not shown) [Compound 2.214.] |
